Measured values taken from US9409908B2 (priority 2012, dated 2016).
Read-outs that look alike come from different tables or passages of the source.

Legend:
[1] = target: purified human plasma kallikrein (Homo sapiens (Human), UniProt P03952); experiment: biochemical; format: biochemical
[2] = target: purified human Factor XIa (Homo sapiens (Human), UniProt P03951); experiment: biochemical; format: biochemical
Chain of purified human Factor XIa (P03951 whole entry, looked up): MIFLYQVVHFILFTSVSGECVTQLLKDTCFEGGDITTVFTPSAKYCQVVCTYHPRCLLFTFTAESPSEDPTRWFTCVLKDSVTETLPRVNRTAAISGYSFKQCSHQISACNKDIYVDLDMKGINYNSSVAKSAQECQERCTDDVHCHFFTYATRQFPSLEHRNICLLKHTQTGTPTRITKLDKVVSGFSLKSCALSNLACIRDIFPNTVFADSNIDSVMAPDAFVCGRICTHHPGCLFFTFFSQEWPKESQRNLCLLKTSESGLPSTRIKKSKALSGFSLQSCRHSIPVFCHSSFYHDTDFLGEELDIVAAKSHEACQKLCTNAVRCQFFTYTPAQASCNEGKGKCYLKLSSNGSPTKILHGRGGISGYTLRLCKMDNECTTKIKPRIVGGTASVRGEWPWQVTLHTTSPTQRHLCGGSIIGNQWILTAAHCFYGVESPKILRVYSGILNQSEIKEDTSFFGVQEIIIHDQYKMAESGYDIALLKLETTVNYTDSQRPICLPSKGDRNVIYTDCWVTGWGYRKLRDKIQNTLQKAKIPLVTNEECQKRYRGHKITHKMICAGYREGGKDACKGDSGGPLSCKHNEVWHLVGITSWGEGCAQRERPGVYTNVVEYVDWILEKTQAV
Chain of purified human Factor XIa (P03951 whole entry partner, looked up): as the sequence (P03951 whole entry, looked up) above

Chain of purified human plasma kallikrein (P03952 whole entry, looked up): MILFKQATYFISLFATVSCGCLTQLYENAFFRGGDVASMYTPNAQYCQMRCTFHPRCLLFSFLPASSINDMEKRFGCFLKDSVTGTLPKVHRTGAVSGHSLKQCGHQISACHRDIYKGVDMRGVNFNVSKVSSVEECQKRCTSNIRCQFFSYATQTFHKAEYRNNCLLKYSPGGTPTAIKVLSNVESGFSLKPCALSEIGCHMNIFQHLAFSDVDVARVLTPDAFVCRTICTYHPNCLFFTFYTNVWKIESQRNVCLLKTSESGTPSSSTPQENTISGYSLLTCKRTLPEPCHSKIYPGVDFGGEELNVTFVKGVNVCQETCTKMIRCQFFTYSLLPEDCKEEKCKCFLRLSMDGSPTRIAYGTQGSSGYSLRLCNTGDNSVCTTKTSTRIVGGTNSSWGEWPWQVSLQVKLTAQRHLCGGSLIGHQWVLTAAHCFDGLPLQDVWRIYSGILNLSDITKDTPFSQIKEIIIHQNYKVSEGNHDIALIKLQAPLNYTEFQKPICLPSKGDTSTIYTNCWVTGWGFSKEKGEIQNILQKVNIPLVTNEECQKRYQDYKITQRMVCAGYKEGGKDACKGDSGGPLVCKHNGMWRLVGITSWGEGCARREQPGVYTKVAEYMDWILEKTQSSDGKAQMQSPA
Chain of purified human plasma kallikrein (P03952 whole entry partner, looked up): as the sequence (P03952 whole entry, looked up) above

Structure (SMILES)	Ki ([1]; read-out: Plasma Kallikrein Ki)	Ki ([2]; read-out: Factor XIa Ki)	Ki ([1]; Plasma Kallikrein Ki)	Ki [2]
C[C@@H]1CCC[C@H](N2CCC(c3c(F)ccc(Cl)c3F)=CC2=O)c2cccc(c2)-c2ccccc2NC1=O [Example 162, (10R,14S)-14-[4-(3-chloro-2,6-difluorophenyl)-6-oxo-1,2,3,6-tetrahydropyridin-1-yl]-10-methyl-8-azatricyclo[13.3.1.0^2,7]nonadeca-1(19),2,4,6,15,17-hexaen-9-one]	125 nM	76.5 nM	–	–
COC(=O)c1ccc2c(c1)-c1cccc(c1)[C@@H](N1CCC(c3c(Br)ccc(Cl)c3F)=CC1=O)CCC[C@@H](C)C(=O)N2 [Example 163, Methyl (10R,14S)-14-[4-(6-bromo-3-chloro-2-fluorophenyl)-6-oxo-1,2,3,6-tetrahydropyridin-1-yl]-10-methyl-9-oxo-8-azatricyclo[13.3.1.0^2,7]nonadeca-1(19),2,4,6,15,17-hexaene-4-carboxylate]	224 nM	> 398 nM	–	–
COC(=O)c1ccc2c(c1)-c1cccc(c1)[C@@H](N1CCC(c3c(F)ccc(Cl)c3F)=CC1=O)CCC[C@@H](C)C(=O)N2 [Example 164, Methyl (10R,14S)-14-[4-(3-chloro-2,6-difluorophenyl)-6-oxo-1,2,3,6-tetrahydropyridin-1-yl]-10-methyl-9-oxo-8-azatricyclo[13.3.1.0^2,7]nonadeca-1(19),2,4,6,15,17-hexaene-4-carboxylate]	442 nM	> 398 nM	–	–
COC(=O)c1ccc2c(c1)-c1cccc(c1)[C@H](N1CCC(c3c(F)ccc(Cl)c3F)=CC1=O)CCC[C@@H](C)C(=O)N2 [Example 165, Methyl (10R,14R)-14-[4-(3-chloro-2,6-difluorophenyl)-6-oxo-1,2,3,6-tetrahydropyridin-1-yl]-10-methyl-9-oxo-8-azatricyclo[13.3.1.0^2,7]nonadeca-1(19),2,4,6,15,17-hexaene-4-carboxylate]	9470 nM	> 398 nM	–	–
C[C@@H]1CCC[C@H](N2CCC(c3c(F)ccc(Cl)c3F)=CC2=O)c2cccc(c2)-c2cc(C(=O)O)ccc2NC1=O [Example 166, (10R,14S)-14-[4-(3-chloro-2,6-difluorophenyl)-6-oxo-1,2,3,6-tetrahydropyridin-1-yl]-10-methyl-9-oxo-8-azatricyclo[13.3.1.0^2,7]nonadeca-1(19),2,4,6,15,17-hexaene-4-carboxylic acid]	113 nM	6.38 nM	–	–
C[C@@H]1CCC[C@H](N2CCC(c3c(Br)ccc(Cl)c3F)=CC2=O)c2cccc(c2)-c2cc(C(=O)O)ccc2NC1=O [Example 167, (10R,14S)-14-[4-(6-bromo-3-chloro-2-fluorophenyl)-6-oxo-1,2,3,6-tetrahydropyridin-1-yl]-10-methyl-9-oxo-8-azatricyclo[13.3.1.0^2,7]nonadeca-1(19),2,4,6,15,17-hexaene-4-carboxylic acid]	20.1 nM	0.81 nM	–	–
COC(=O)c1ccc2c(c1)-c1cccc(c1)[C@@H](N1CCC(c3c(C#N)ccc(C#N)c3F)=CC1=O)CCC[C@@H](C)C(=O)N2 [Example 168, Methyl (10R,14S)-14-[4-(3,6-dicyano-2-fluorophenyl)-6-oxo-1,2,3,6-tetrahydropyridin-1-yl]-10-methyl-9-oxo-8-azatricyclo[13.3.1.0^2,7]nonadeca-1(18),2,4,6,15(19),16-hexaene-4-carboxylate]	1920 nM	> 417 nM	–	–
COC(=O)c1ccc2c(c1)-c1cccc(c1)[C@@H](N1CCC(c3cccc(Cl)c3F)=CC1=O)CCC[C@@H](C)C(=O)N2 [Example 169, Methyl (10R,14S)-14-[4-(3-chloro-2-fluorophenyl)-6-oxo-1,2,3,6-tetrahydropyridin-1-yl]-10-methyl-9-oxo-8-azatricyclo[13.3.1.0^2,7]nonadeca-1(18),2,4,6,15(19),16-hexaene-4-carboxylate]	768 nM	> 417 nM	–	–
COC(=O)c1ccc2c(c1)-c1cccc(c1)[C@@H](N1CCC(c3c(C#N)ccc(Cl)c3F)=CC1=O)CCC[C@@H](C)C(=O)N2 [Example 170, Methyl (10R,14S)-14-[4-(3-chloro-6-cyano-2-fluorophenyl)-6-oxo-1,2,3,6-tetrahydropyridin-1-yl]-10-methyl-9-oxo-8-azatricyclo[13.3.1.0^2,7]nonadeca-1(18),2,4,6,15(19),16-hexaene-4-carboxylate]	7.73 nM	46.6 nM	–	–
COC(=O)Nc1ccc2c(c1)NC(=O)[C@H](C)CCC[C@H](N1CCC(c3c(C(C)=O)ccc(Cl)c3F)=CC1=O)c1cccc-2c1 [Example 171, Methyl N-[(10R,14S)-14-[4-(6-acetyl-3-chloro-2-fluorophenyl)-6-oxo-1,2,3,6-tetrahydropyridin-1-yl]-10-methyl-9-oxo-8-azatricyclo[13.3.1.0^2,7]nonadeca-1(18),2,4,6,15(19),16-hexaen-5-yl]carbamate]	8.87 nM	0.17 nM	–	–
COC(=O)c1ccc2c(c1)-c1cccc(c1)[C@H](N1CCC(c3c(Br)ccc(Cl)c3F)=CC1=O)CCC[C@@H](C)C(=O)N2 [Example 175, Methyl (10R,14R)-14-[4-(6-bromo-3-chloro-2-fluorophenyl)-6-oxo-1,2,3,6-tetrahydropyridin-1-yl]-10-methyl-9-oxo-8-azatricyclo[13.3.1.0^2,7]nonadeca-1(19),2,4,6,15,17-hexaene-4-carboxylate]	3810 nM	> 625 nM	–	–
COC(=O)Nc1ccc2c(c1)NC(=O)[C@H](C)C(F)CC[C@H](N1CCC(c3c(F)ccc(Cl)c3F)=CC1=O)c1cc-2ccn1 (stereo partly drawn) [Example 180, Methyl N-[(10S,14S)-14-[4-(3-chloro-2,6-difluorophenyl)-6-oxo-1,2,3,6-tetrahydropyridin-1-yl]-11-fluoro-10-methyl-9-oxo-8,16-diazatricyclo[13.3.1.0^2,7]nonadeca-1(19),2(7),3,5,15,17-hexaen-5-yl]carbamate]	2.42 nM	0.18 nM	–	–
COC(=O)Nc1ccc2c(c1)NC(=O)[C@H](C)CCC[C@H](N1CCC(c3c(-c4c[nH]nn4)ccc(Cl)c3F)=CC1=O)c1cc-2ccn1 [Example 182, Methyl N-[(10R,14S)-14-{4-[3-chloro-2-fluoro-6-(1H-1,2,3-triazol-4-yl)phenyl]-6-oxo-1,2,3,6-tetrahydropyridin-1-yl}-10-methyl-9-oxo-8,16-diazatricyclo[13.3.1.0^2,7]nonadeca-1(19),2(7),3,5,15,17-hexaen-5-yl]carbamate]	14.3 nM	0.11 nM	–	–
CC(=O)Nc1ccc(Cl)c(F)c1C1=CC(=O)N([C@H]2CCC[C@@H](C)C(=O)Nc3ccccc3-c3ccnc2c3)CC1 [Example 183, N-(4-chloro-3-fluoro-2-{1-[(10R,14S)-10-methyl-9-oxo-8,16-diazatricyclo[13.3.1.0^2,7]nonadeca-1(19),2(7),3,5,15,17-hexaen-14-yl]-6-oxo-1,2,3,6-tetrahydropyridin-4-yl}phenyl)acetamide]	297 nM	75.1 nM	–	–
C[C@@H]1CCC[C@H](N2CCC(c3c(-n4cnnn4)ccc(Cl)c3F)=CC2=O)c2cc(ccn2)-c2cc(F)ccc2NC1=O [Example 184, (10R,14S)-14-{4-[3-chloro-2-fluoro-6-(1H-1,2,3,4-tetrazol-1-yl)phenyl]-6-oxo-1,2,3,6-tetrahydropyridin-1-yl}-4-fluoro-10-methyl-8,16-diazatricyclo[13.3.1.0^2,7]nonadeca-1(19),2(7),3,5,15,17-hexaen-9-one]	2.51 nM	< 0.05 nM	–	–
C[C@@H]1CCC[C@H](n2ccc(-c3c(F)ccc(Cl)c3F)cc2=O)c2cc(ccn2)-c2ccncc2NC1=O [Example 185, (10R,14S)-14-[4-(3-chloro-2,6-difluorophenyl)-2-oxo-1,2-dihydropyridin-1-yl]-10-methyl-5,8,16-triazatricyclo[13.3.1.0^2,7]nonadeca-1(19),2(7),3,5,15,17-hexaen-9-one]	–	–	47.4 nM	22.8 nM
COC(=O)c1ccc2c(c1)-c1ccnc(c1)[C@@H](N1CCC(c3c(C(F)(F)F)ccc(Cl)c3F)=CC1=O)CCC[C@@H](C)C(=O)N2 [Example 186, Methyl (10R,14S)-14-{4-[3-chloro-2-fluoro-6-(trifluoromethyl)phenyl]-6-oxo-1,2,3,6-tetrahydropyridin-1-yl}-10-methyl-9-oxo-8,16-diazatricyclo[13.3.1.0^2,7]nonadeca-1(19),2(7),3,5,15,17-hexaene-4-carboxylate]	60.5 nM	57.9 nM	–	–
C[C@@H]1CCC[C@H](N2CCC(c3c(C(F)(F)F)ccc(Cl)c3F)=CC2=O)c2cc(ccn2)-c2cc(C(=O)O)ccc2NC1=O [Example 187, (10R,14S)-14-{4-[3-chloro-2-fluoro-6-(trifluoromethyl)phenyl]-6-oxo-1,2,3,6-tetrahydropyridin-1-yl}-10-methyl-9-oxo-8,16-diazatricyclo[13.3.1.0^2,7]nonadeca-1(19),2(7),3,5,15,17-hexaene-4-carboxylic acid]	17.4 nM	0.44 nM	–	–
C[C@@H]1CCC[C@H](N2CCC(c3cc(Cl)ccc3-n3ccnn3)=CC2=O)c2cc(ccn2)-c2cc(F)ccc2NC1=O [Example 188, (10R,14S)-14-{4-[5-chloro-2-(1H-1,2,3-triazol-1-yl)phenyl]-6-oxo-1,2,3,6-tetrahydropyridin-1-yl}-4-fluoro-10-methyl-8,16-diazatricyclo[13.3.1.0^2,7]nonadeca-1(19),2(7),3,5,15,17-hexaen-9-one]	23.2 nM	1.6 nM	–	–
COC(=O)Nc1ccc2c(c1)NC(=O)[C@H](C)CCC[C@H](N1CCC(c3c(F)ccc(Br)c3F)=CC1=O)c1cc-2ccn1 [Example 190, Methyl N-[(10R,14S)-14-[4-(3-bromo-2,6-difluorophenyl)-6-oxo-1,2,3,6-tetrahydropyridin-1-yl]-10-methyl-9-oxo-8,16-diazatricyclo[13.3.1.0^2,7]nonadeca-1(19),2,4,6,15,17-hexaen-5-yl]carbamate]	1.11 nM	0.27 nM	–	–
COC(=O)Nc1ccc2c(c1)NC(=O)[C@H](C)CCC[C@H](N1CCC(c3c(C(C)=O)ccc(Cl)c3F)=CC1=O)c1cc(F)cc-2c1 [Example 191, Methyl N-[(10R,14S)-14-[4-(6-acetyl-3-chloro-2-fluorophenyl)-6-oxo-1,2,3,6-tetrahydropyridin-1-yl]-17-fluoro-10-methyl-9-oxo-8-azatricyclo[13.3.1.0^2,7]nonadeca-1(19),2,4,6,15,17-hexaen-5-yl]carbamate]	19.2 nM	0.23 nM	–	–
